According to ChEMBL document CHEMBL5154675, “Design, Synthesis, and Biological Evaluation of 1-(Indolizin-3-yl)ethan-1-ones as CBP Bromodomain Inhibitors for the Treatment of Prostate Cancer” (J Med Chem, 2022):
pIC50: −log10 of the molar value. ≈ marks a conversion by molar mass, not a printed value. Calls of active or inactive are those of the source. The rule behind the calls is not given here.

Legend:
[1] = Apparent permeability across basolateral to apical side in human Caco-2 cells at 10 uM measured after 2 hrs by LC-MS/MS analysis; assay type: ADME, cell-based
[2] = Metabolic stability in rat liver microsomes assessed as parent compound remaining at 1 uM incubated for 45 mins in presence of NADPH by LC-MS/MS analysis; assay type: ADME, Microsome; conditions: read-out: Stability
[3] = biological target: Bromodomain-containing protein 2 (Homo sapiens, UniProt P25440); conditions: dose 200.0 µM, time 30.0 min
Sequence of Bromodomain-containing protein 2 (P25440 whole entry, looked up, the tested form may be a part): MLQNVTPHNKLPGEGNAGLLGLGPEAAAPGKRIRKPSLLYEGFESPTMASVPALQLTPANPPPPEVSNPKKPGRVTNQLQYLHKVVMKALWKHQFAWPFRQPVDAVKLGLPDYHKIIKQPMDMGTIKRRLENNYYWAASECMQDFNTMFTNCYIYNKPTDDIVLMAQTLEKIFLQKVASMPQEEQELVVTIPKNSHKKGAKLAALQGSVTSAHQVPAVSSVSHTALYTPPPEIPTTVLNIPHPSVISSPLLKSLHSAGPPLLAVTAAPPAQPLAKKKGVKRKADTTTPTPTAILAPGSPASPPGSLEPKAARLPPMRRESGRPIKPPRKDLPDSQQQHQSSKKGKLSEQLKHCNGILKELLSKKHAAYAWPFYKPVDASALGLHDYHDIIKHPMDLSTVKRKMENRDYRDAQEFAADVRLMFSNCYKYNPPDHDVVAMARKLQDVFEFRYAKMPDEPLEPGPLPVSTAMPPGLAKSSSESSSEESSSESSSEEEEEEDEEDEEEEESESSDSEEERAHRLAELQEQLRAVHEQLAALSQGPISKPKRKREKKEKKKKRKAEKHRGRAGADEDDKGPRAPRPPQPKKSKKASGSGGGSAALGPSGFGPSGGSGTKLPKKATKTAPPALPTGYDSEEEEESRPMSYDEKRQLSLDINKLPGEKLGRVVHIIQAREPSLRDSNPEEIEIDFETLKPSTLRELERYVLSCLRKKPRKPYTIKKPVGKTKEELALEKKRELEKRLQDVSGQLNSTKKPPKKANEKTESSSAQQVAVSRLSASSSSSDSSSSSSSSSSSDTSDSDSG

CREB-binding protein = CREB-binding protein (Homo sapiens, UniProt Q92793); test: Inhibition of His6-tagged human CBP bromodomain (1081 to 1197 residues) expressed in Escherichia coli BL21 (DE3) incubated for 30 mins by HTRF assay
Sequence of CREB-binding protein (Q92793 whole entry, the tested form may be a part): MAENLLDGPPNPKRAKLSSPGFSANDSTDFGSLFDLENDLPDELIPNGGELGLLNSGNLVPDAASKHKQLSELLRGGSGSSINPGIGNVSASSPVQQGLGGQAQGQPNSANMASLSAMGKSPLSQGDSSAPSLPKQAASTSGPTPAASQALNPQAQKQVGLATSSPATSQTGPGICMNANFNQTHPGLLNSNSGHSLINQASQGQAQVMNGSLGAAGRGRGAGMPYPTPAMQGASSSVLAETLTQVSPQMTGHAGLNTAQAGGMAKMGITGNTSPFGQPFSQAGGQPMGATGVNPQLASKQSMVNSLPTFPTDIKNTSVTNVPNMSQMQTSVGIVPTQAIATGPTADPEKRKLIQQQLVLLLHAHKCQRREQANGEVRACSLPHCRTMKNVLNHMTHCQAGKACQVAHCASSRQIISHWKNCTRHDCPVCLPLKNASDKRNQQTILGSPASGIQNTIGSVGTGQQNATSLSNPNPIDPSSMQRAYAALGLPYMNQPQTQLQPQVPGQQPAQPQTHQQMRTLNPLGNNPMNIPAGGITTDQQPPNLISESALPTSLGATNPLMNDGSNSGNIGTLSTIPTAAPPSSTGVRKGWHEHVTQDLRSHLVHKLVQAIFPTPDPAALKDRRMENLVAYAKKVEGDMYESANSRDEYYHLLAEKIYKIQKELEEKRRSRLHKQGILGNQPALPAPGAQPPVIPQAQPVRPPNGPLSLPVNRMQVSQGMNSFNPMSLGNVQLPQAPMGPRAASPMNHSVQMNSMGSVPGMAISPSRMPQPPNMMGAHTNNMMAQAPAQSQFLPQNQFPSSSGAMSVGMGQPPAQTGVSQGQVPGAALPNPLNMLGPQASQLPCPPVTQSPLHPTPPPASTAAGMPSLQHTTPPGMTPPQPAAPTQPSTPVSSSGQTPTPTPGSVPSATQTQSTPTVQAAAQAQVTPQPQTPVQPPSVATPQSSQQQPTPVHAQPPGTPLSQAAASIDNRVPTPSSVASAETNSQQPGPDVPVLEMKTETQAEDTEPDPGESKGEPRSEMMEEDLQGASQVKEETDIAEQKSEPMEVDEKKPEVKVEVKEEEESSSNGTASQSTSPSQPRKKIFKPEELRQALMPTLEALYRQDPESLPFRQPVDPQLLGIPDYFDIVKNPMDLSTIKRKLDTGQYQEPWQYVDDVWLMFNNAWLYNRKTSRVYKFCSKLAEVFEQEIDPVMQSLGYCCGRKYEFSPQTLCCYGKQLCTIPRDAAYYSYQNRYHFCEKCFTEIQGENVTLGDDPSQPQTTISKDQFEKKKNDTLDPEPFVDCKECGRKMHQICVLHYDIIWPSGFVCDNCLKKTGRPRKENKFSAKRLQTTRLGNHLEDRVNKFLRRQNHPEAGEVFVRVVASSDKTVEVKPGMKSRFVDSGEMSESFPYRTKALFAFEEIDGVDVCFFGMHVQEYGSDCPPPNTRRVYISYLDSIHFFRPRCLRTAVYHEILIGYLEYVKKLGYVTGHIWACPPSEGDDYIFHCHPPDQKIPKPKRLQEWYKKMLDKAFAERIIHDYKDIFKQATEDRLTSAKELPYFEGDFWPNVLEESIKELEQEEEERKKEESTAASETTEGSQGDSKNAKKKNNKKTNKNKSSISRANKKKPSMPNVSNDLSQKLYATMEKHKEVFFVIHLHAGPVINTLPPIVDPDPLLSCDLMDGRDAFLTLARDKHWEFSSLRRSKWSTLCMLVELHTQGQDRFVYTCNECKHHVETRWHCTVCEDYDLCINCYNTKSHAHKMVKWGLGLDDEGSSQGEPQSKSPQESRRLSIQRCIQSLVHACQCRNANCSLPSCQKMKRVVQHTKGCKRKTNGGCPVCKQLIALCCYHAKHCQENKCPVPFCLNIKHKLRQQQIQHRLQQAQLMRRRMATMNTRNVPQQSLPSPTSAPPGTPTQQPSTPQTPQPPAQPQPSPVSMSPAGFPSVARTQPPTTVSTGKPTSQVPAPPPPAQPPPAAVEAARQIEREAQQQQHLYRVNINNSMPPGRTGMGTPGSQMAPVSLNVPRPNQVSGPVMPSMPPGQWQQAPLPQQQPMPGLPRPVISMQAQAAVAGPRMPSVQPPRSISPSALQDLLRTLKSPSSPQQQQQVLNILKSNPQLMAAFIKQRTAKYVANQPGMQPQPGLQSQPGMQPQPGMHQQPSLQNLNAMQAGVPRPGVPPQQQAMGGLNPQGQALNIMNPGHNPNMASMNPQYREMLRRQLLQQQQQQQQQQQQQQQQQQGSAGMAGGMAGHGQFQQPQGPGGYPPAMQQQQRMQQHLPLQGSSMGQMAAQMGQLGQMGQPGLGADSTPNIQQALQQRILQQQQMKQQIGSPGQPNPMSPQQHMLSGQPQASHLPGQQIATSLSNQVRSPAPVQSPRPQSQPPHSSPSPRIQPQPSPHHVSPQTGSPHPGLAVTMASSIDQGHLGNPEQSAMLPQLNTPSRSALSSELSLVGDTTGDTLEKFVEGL

[4] = Hepatic extraction ratio in human liver microsomes at 1 uM incubated for 45 mins in presence of NADPH by LC-MS/MS analysis; assay type: ADME, Microsome; conditions: read-out: ERH
[5] = biological target: Bromodomain testis-specific protein (Homo sapiens, UniProt Q58F21); conditions: dose 200.0 µM, time 30.0 min
[6] = Hepatic clearance in rat liver microsomes at 1 uM incubated for 45 mins in presence of NADPH by LC-MS/MS analysis; assay type: ADME, Microsome
CWR22R [7] = test: Suppression of Androgen receptor variants gene expression in human 22Rv1 cells incubated for 48 hrs by SYBR green dye-based qRT-PCR analysis; assay type: functional, cell-based; conditions: dose 0-20 µM, DDE = dose-dependent effect
[8] = Toxicity in NOD SCID mouse xenografted with human 22Rv1 cells assessed as mortality at 40 mg/kg, ip administered once daily for 21 days; assay type: organism-based, CWR22R; conditions: in vivo, 504 h, time 21 day
CWR22R [9] = test: Antitumor activity against human 22Rv1 cells xenografted in NOD SCID mouse assessed as tumor growth inhibition at 40 mg/kg, ip administered once daily for 21 days and measured every other day relative to control; assay type: functional; conditions: 22Rv1, 504 h, time 21 day, read-out: TGI
[10] = Half life in Sprague-Dawley rat at 5 mg/kg, iv administered as single dose measured up to 24 hrs; assay type: ADME, organism-based; conditions: Sprague-Dawley, in vivo
[11] = Apparent permeability across basolateral to apical side in human Caco-2 cells assessed as drug recovery at 10 uM measured after 2 hrs by LC-MS/MS analysis; assay type: ADME, cell-based; conditions: read-out: Drug recovery
CWR22R [12] = test: Antitumor activity against human 22Rv1 cells xenografted in NOD SCID mouse assessed as tumor growth inhibition at 40 mg/kg, po administered 5 times per week via oral gavage for 14 days and measured every other day relative to control; assay type: functional; conditions: 22Rv1, 336 h, time 14 day, read-out: TGI
[13] = biological target: Bromodomain adjacent to zinc finger domain protein 2B (Homo sapiens) (UniProt Q9UIF8); conditions: dose 200.0 µM, time 30.0 min
LNCaP C4-2B [14] = test: Antiproliferative activity against human LNCaP C4-2B cells assessed as inhibition of cell growth by Celltiter-Glo assay; assay type: functional, cell-based
[15] = biological target: T1, Bromodomain-containing protein 9 (Homo sapiens) (UniProt Q9H8M2); conditions: dose 200.0 µM, time 30.0 min
T1 sequence (whole entry): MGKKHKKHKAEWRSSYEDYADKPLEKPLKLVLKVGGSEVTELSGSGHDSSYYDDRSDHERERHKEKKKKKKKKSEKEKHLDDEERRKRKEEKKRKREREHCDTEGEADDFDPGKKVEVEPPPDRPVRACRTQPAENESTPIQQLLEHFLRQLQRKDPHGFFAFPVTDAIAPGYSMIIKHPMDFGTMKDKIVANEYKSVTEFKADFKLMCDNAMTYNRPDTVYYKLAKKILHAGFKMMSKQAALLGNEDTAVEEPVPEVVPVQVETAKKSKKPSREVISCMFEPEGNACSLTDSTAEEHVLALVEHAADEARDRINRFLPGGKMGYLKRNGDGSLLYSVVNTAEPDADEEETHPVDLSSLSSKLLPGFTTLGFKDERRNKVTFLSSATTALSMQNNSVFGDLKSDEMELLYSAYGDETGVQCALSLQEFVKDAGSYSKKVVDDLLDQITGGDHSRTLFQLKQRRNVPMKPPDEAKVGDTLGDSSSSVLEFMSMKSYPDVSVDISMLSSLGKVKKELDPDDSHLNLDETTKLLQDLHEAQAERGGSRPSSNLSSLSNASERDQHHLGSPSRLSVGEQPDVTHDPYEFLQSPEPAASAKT

[16] = Apparent permeability across apical to basolateral side in human Caco-2 cells assessed as drug recovery at 10 uM measured after 2 hrs by LC-MS/MS analysis; assay type: ADME, cell-based; conditions: read-out: Drug recovery
LNCaP C4-2B [17] = test: Suppression of c-Myc protein expression in human LNCaP C4-2B cells at 5 uM incubated for 48 hrs by Western blot analysis; assay type: functional, cell-based
LNCaP C4-2B [18] = test: Suppression of Androgen receptor target-gene expression in human LNCaP C4-2B cells at 5 uM incubated for 48 hrs by SYBR green dye-based qRT-PCR analysis; assay type: functional, cell-based
[19] = biological target: Bromodomain-containing protein 3 (Homo sapiens, UniProt Q15059); conditions: dose 200.0 µM, time 30.0 min
Sequence of Bromodomain-containing protein 3 (Q15059 2-726 limits assumed): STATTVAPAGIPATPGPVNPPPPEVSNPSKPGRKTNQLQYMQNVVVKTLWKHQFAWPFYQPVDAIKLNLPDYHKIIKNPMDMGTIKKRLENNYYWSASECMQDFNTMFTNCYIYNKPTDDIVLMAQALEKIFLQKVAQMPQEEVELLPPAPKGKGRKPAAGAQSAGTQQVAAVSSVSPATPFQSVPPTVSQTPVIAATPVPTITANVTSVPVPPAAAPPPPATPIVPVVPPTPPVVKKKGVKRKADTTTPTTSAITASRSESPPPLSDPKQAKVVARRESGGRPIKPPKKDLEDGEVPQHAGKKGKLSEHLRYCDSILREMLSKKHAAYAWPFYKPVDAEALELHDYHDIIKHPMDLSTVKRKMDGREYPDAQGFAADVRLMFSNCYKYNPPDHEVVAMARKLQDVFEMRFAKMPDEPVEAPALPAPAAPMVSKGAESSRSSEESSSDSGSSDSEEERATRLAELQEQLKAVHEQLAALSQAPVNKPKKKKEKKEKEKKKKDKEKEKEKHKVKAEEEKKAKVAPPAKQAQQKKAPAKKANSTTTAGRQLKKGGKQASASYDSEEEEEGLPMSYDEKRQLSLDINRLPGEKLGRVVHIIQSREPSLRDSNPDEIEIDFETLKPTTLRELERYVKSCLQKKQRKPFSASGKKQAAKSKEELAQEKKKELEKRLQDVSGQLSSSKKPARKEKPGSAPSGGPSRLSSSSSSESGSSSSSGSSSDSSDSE

[20] = Half life in Sprague-Dawley rat at 25 mg/kg, po measured up to 24 hrs; assay type: ADME, organism-based; conditions: in vivo
[21] = Aqueous solubility of compound in PBS buffer at pH 7.2 measured after 24 hrs by HPLC analysis; assay type: physicochemical
LNCaP C4-2B [22] = test: Suppression of PSA gene expression in human LNCaP C4-2B cells transfected with renilla luciferase incubated for 24 hrs by dual luciferase reporter assay; assay type: functional, cell-based; conditions: dose 0.4-10 µM, DDE = dose-dependent effect
[23] = AUC (0 to infinity) in Sprague-Dawley rat at 5 mg/kg, iv administered as single dose measured up to 24 hrs; assay type: ADME, organism-based; set-up: time < 24 hrs, dose 5 mg/kg, route iv; conditions: in vivo, 24 h
CWR22R [24] = test: Suppression of full length Androgen receptor gene expression in human 22Rv1 cells incubated for 48 hrs by SYBR green dye-based qRT-PCR analysis; assay type: functional, cell-based; conditions: dose 0-20 µM, DDE = dose-dependent effect
[25] = Half life in human liver microsomes at 1 uM incubated for 45 mins in presence of NADPH by LC-MS/MS analysis; assay type: ADME, Microsome
[26] = Hepatic clearance in human liver microsomes at 1 uM incubated for 45 mins in presence of NADPH by LC-MS/MS analysis; assay type: ADME, Microsome; conditions: read-out: CLH
CWR22R [27] = test: Antimigratory activity against human 22Rv1 cells assessed as reduction in cell migration at 5 uM incubated for 48 hrs by bright-field microscopy based wound healing assay relative to control; assay type: functional; set-up: scale not given: the % may be the effect or the level left
LNCaP [28] = test: Suppression of Androgen receptor target-gene expression in human LNCaP cells at 5 uM incubated for 48 hrs by SYBR green dye-based qRT-PCR analysis; assay type: functional, cell-based
CWR22R [29] = test: Antiproliferative activity against human 22Rv1 cells assessed as cell growth inhibition by Celltiter-Glo assay; assay type: functional, cell-based
LNCaP [30] = test: Suppression of c-Myc protein expression in human LNCaP cells at 5 uM incubated for 48 hrs by Western blot analysis; assay type: functional, cell-based

Work on `COc1ccn2c(C(C)=O)cc(C(=O)Nc3cc(C(C)O)cc(-c4cnn(C5CC5)c4)c3F)c2c1` (stereo unspecified) yielded a Papp B→A at 2 h, 10 µM [1] of 11.8 ×10⁻⁶ cm/s, a remaining at 0.75 h, 1 µM [2] of 50.7% and a ΔTm [3] of 1 °C. It also gave a pIC50 (CREB-binding protein) of 8.38, a hepatic extraction ratio at 0.75 h, 1 µM [4] of 0.798 and a ΔTm [5] of -3 °C. The CLhep predicted at 1 µM [6] was 27.3 mL/min/kg, the Activity (CWR22R [7]) was “Dde” and the Activity [8] was “Non-Toxic”. For the same molecule, the inhibition in vivo at 40 mg/kg (CWR22R [9]) was 88%, the half-life [10] was 36.6 min and the recovery at 2 h, 10 µM [11] was 37.3%. The inhibition in vivo at 40 mg/kg (CWR22R [12]) was 78%, the ΔTm [13] was 0 °C and the pIC50 (LNCaP C4-2B [14]) was 5.19. For the same molecule, the ΔTm [15] was 5 °C, the recovery at 2 h, 10 µM [16] was 41.2% and the Activity (LNCaP C4-2B [17]) was “Active”. The Activity (LNCaP C4-2B [18]) was “Active”, the ΔTm [19] was -1.3 °C and the half-life [20] was 99.6 min. The solubility at 24 h [21] was 20 µg/mL (≈ 42 µM), the Activity (LNCaP C4-2B [22]) was “Dde” and the AUC [23] was 3.71571 µg·h/mL. The Activity (CWR22R [24]) was “Dde”, the half-life at 1 µM [25] was 21.3 min and the CLint scaled at 1 µM [26] was 16.5 mL/min/kg. For the same molecule, the Activity (CWR22R [27]) was 60%, the Activity (LNCaP [28]) was “Active” and the pIC50 (CWR22R [29]) was 5.69. The Activity (LNCaP [30]) was “Active”.
